Data on one compound can be found in patent US11723894B2, “Combination product for the treatment of neurological and/or psychiatric disorders” (Consejo Superior de Investigaciones Cientificas (CSIC), priority 2017, dated 2023).

In test [1] the test system is hippocampal subgranular neurogenic niche. Kind of test: Short-term (4 days) in vivo activation of the hippocampal subgranular neurogenic niche (BrdU). The conditions noted are these: DMT 0.1 μg/animal, lateral ventricle, sacrificed day 5. Details: species or system C57BL/6 mice. As for the experimental part: Adult male C57BL/6 mice (obtained from Charles River Labs) were injected in the lateral ventricle (coordinates: from bregma, posterior −1 mm, lateral +1.3 mm, ventral +2 mm, according to the atlas of Paxinos and Franklin (Paxinos G, Franklin KBJ. The Mouse Brain in Stereotaxic Coordinates. 4. San Diego: Academic Press; 2012)), using a stereotaxic apparatus (Kopf Instruments, CA) with DMT (0.1 μg/animal), alone or in combination with the selective Sigma-1 BD1063 (BD, 0.2 μg/animal, Sigma, catalog number SML0276), the mixed 5-HT2A/1A receptor antagonist methiothepin (Met, 0.2 μg/animal, Sigma catalog number M149), or the selective 5-HT1A receptor antagonist WAY100635 (WAY, 0.2 μg/animal, ABCAM catalog number ab120550). Prior to the injection, mice were anesthetized by intraperitoneal injection of ketamine (60 mg/kg) and medetomidine (0.125 mg/kg). […] The boundaries of these nervous system regions were determined with reference to internal anatomic landmarks (Paxinos G, Franklin KBJ. The Mouse Brain in Stereotaxic Coordinates. 4. San Diego: Academic Press; 2012). For DG area selection, images were analyzed using computer-assisted image analysis software (Soft Imaging System Corporation, Lakewood, Colo., http://www.soft-imaging.com). Positive cells, which intersected the uppermost focal plane (exclusion plane) and the lateral exclusion boundaries of the counting frames, were not counted. […]

The test system of test [2] is subgranular zone of the hippocampus. Nature of the test: Long-term (21 days) in vivo neurogenesis in the subgranular zone of the hippocampus (BrdU/NeuN, BrdU/DCX). Set-up: species or system C57BL/6 mice. The procedure: Adult male C57BL/6 mice (obtained from Charles River Labs, Barcelona, Spain) were injected every other day for 3 weeks with DMT (0.1 μg/animal), alone or in combination with the selective Sigma-1 BD1063 antagonist (BD, 0.2 μg/animal, Sigma, Catalog number SML0276), the mixed 5-HT2A/1A receptor antagonist methiothepin (Met, 0.2 μg/animal, Sigma, Catalog number M149), or the selective 5-HT1A receptor antagonist WAY100635 (WAY, 0.2 μg/animal, ABCAM catalog number ab120550). On day 1 of treatment, animals were intraperitoneally injected with the proliferation marker 5-bromo-2-deoxyuridine (BrdU, 50 mg/kg, Sigma, Catalog number B5002) and sacrificed on day 21. Following anesthesia, the animals were perfused transcardially with 4% paraformaldehyde, and the brains obtained and post-fixed in the same solution at 4-8° C. overnight. They were subsequently cryoprotected, frozen, and finally cut into 30 μm coronal sections in a cryostat. Free-floating sections were immunostained using immunofluorescence analysis. For BrdU detection, samples were first incubated with 2 M HCl for 30 minutes at 37° C. before blocking 1 hour in PBS containing 5% normal serum, 0.1 M lysine, and 0.1% Triton X-100. Sections were then incubated with anti-BrdU mouse monoclonal antibody (DAKO, Barcelona, Spain, Catalog number M0744) combined with a neuronal marker, anti-neuN rabbit antibody (Abcam, Cambridge, UK. Catalog number ABN78) or an anti-double courtin (DCX) goat antibody (Santa Cruz Biotech. USA) at 4° C. overnight, washed three times and incubated with Alexa Fluor-488 goat anti-mouse and Alexa 647-goat anti-rabbit or -horse anti-goat secondary antibodies (Molecular Probes, Madrid, Spain), respectively, for 1 hour at room temperature. After rinses, sections were mounted with Vectashield.

Test [3] concerns astrocytes. Nature of the test: LPS-induced nitrite production (Griess) in primary astrocyte cultures. The class given is cell-based, rat. The procedure: Example 8: DMT, DET, DPT and 5-MeO-DMT administration in vitro prevents inflammation in rat primary glial cells. […] Rat primary glial cell cultures were prepared from the cerebral cortex of 3 day old rats which were dissected, dissociated, and incubated with 0.25% trypsin/EDTA at 37° C. for 1 h. After centrifugation, the pellet was washed three times with HBSS (Gibco) and the cells were plated in poly-D-lysine (20 μg/mL) pretreated flasks (75 cm2). After 7-10 days, the flasks were agitated in an orbital shaker for 4 h at 230 rpm at 37° C. and non-adherent microglial cells were isolated and plated. Then Dulbecco's Modified Eagle's Medium (DMEM) was added to the flasks, which were agitated in a horizontal shaker at 260 rpm at 37° C. After overnight agitation, the supernatant (oligodendrocytes and some remaining microglial cells) was removed, and astrocytes (adherent cells) were collected. The purity of the cultures was >95%, as determined by immunofluorescence analysis using an anti-glial fibrillary acidic protein (GFAP; clone G-A-5; Sigma-Aldrich) antibody to identify astrocytes, and an anti-Iba1 (Wako Catalog No. 019-19741) antibody to identify microglial cells. On attaining semiconfluence, cells were administered each of the test tryptamines at 1 μM or with the combination test tryptamine+Ritanserin (Rit at 1 μM) 2 h before exposure to lipopolysaccharide (LPS, 10 μg/mL; Sigma-Aldrich) and kept in the presence of each drug or drug combination for 24 h. In combination studies, Rit was added to medium 1h before administration of the corresponding tryptamine. Vehicle-treated cultures were used as a control. After the 24 h drug exposure period, cultures were tested to assess nitrite release. To quantify nitrite concentrations in culture medium, supernatants of glial cultures were collected and mixed with an equal volume of Griess reagent (Sigma-Aldrich). Samples were then incubated at room temperature for 15 min and absorbance was measured at 540 nm on a microplate reader. Results are expressed as the mean±SEM of six replications in three different experiments
In general terms: The Griess reaction detects nitrite, a stable product of nitric oxide.

As to `CN(C)CCc1c[nH]c2ccccc12` [DMT, N,N-dimethyltryptamine], the “BrdU staining (proliferation) in the hippocampus” value in test [1] is “increases”. Besides, in test [2] (DMT 0.1 μg/animal every other day for 3 weeks, sacrificed day 21), the “double BrdU-NeuN stained cells (new neurons)” value is listed as “increase”. Also, the “number of newly generated neurons as compared to basal” value in test [2] (FIG. 6 legend, printed as after 5 days of DMT administration) was “doubled”. In addition, in test [3] (Rit 1 μM 1 h before tryptamine 1 μM, then LPS 10 μg/mL 24 h), the “reduction of LPS-induced nitrite in the presence of Rit” value is “maintained”. Moreover, the LPS-induced nitrite increases result in test [3] (tryptamine 1 μM before LPS 10 μg/mL, 24 h, vs LPS alone) is recorded as “significantly reduced”.
